Measurements reported in patent publication US7928099B2, “Pyrimido [4,5-D] azepine derivatives as 5-HT2c agonists” (Pfizer Inc, priority 2007, dated 2011).
Where a name gives a salt, the structure may show the parent alone.

Assays:
[1] = target: T1, human recombinant 5-HT2c receptor (Homo sapiens, UniProt P28335); assay: 3H-meselurgine radioligand binding SPA, membranes from Swiss 3T3 cells (Method 2); details: 3H-meselurgine displacement, Cheng-Prusoff; Swiss 3T3 membranes; read-out: Binding Affinity Ki
T1 construct: expressed in transfected cells; host or cells: CHO K1 (Chinese hamster ovary), stably transfected
T1 sequence (P28335 33-458): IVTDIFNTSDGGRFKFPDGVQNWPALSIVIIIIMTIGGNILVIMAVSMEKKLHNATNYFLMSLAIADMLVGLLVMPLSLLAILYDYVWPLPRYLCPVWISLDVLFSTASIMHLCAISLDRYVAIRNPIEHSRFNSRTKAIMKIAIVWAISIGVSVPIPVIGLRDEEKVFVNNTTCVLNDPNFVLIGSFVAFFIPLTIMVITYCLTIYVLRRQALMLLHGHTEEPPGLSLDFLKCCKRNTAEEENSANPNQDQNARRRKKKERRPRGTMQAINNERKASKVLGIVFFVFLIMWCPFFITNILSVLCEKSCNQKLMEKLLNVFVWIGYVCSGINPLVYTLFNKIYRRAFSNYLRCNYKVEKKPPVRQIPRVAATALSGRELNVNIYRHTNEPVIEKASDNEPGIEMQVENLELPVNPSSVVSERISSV
Description: The compounds of the invention were evaluated for biological activity by measuring the agonist affinity (EC50) and efficacy (Emax) at the human recombinant 5-HT2c receptor expressed in CHO K1 cells, using a fluorescent based Ca^2+ mobilisation assay format compatible with FLIPR technology (Method 1). Additionally, the binding activity of a compound was determined by measuring its affinity for the human recombinant 5-HT2c receptor membranes from Swiss 3T3 cells (Method 2).
The compounds were tested for biological activity by their ability to inhibit binding of the radioligand ^3H-meselurgine at the human recombinant 5-HT2C receptor expressed in the Swiss 3T3 cells using a scintillation proximity assay (SPA) technology.
Swiss 3T3 stably transfected with the 5-HT2C receptor were cultured under standard cell culture techniques. Specifically, cells were grown in 50 mL growth medium (Dulbecco's Modified Eagle's Medium (DMEM) culture media supplemented with 10% dialysed foetal calf serum (FCS), 2 mM penicillin/streptomycin and 20 μg/mL geneticin) in 225 cm^2 flasks at 37° C. and 5% CO2. Cells were grown to 60-80% confluency, harvested using trypsin-EDTA and pelleted by centrifugation for long-term storage at −80° C.
Cell pellets were thawed on ice and resuspended in 3 mL of membrane preparation buffer (see Media and Buffers for composition) per 1 mL of packed cell. The suspension was homogenised on ice for several 5 s intervals using a hand-held homogeniser. The homogenate was then centrifuged at 1,000 rpm for 5 min at 4° C.
The supernatants were then collected and retained. Initial cell & nuclei pellets (P1) were subsequently rehomogenised and centrifuged using the conditions cited above, and the supernatants collected and pooled with those retained from the first spin.
The pooled supernatants were centrifuged at 19,500 rpm for 45 min at 4° C., and the supernatants discarded. The pellets (P2) were then resuspended in 3 mL of membrane preparation buffer per 1 mL of the original packed cell volume. Protein concentrations were subsequently measured and the membrane suspension was finally frozen in aliquots of set volume and stored at −80° C. prior to use in assays.
For each batch of membrane used, optimal concentrations of Polylysine YSi SPA beads and membrane were determined. The assay free radioligand concentration was expressed as a percentage of the total free radioligand concentration to give an estimate of the radioligand depletion.
The affinity of ^3H-meselurgine for the human recombinant 5-HT2c receptor was determined for each membrane batch at the selected protein and bead concentrations. […] The mean KD for ^3H-meselurgine at a batch of membranes was determined from data from a minimum of three separate assays.
The required amount of membrane, was thawed on ice and added to a pre-determined volume of bead suspension in 50 mM HEPES buffer, pH 7.4. The beads were then pre-coupled by incubating the predetermined protein quantity per mg of bead on a roller 4° C. for 1 h. Subsequently, the bead/membrane complex was spun down at 1000 rpm for 5 min. The resulting pellet was resuspended in assay buffer at the specific concentration required for the final assay.
An aliquot of [^3H]-meselurgine stock was diluted in binding assay buffer to give a pre-determined final assay concentration less than the equilibrium dissociation constant (KD) value.
All test compounds were prepared at a concentration of 4 mM in 100% dimethyl sulphoxide (DMSO) from dry samples.
The same volume of assay buffer was added to specific wells of the plate to enable subsequent measurement of total radioligand binding. Furthermore, 5 μL of Mianserin at 25 μM (2.5 μM final assay concentration was subsequently added to pre-determined wells to determine non-specific binding (NSB).

[2] = target: T1, human recombinant 5-HT2c receptor; assay: FLIPR fluorescent Ca2+ mobilisation agonist assay in CHO K1 cells (Method 1); format: cell-based; details: for EC50: agonist affinity, FLIPR
[3] = CHO-K1, efficacy, percentage of mean maximal response to 10 μM 5-HT
[4] = efficacy, percentage of mean maximal response to 10 μM 5-HT

SMILES	Ki [1] [nM]	Emax [2, 3] [%]	EC50 [2] [nM]	Emax [2, 4] [%]	Emax % [2, 4] [%]
CCNc1nc(N(C)CC)nc2c1CCNCC2 [Example 98, N-2,N-4-diethyl-N-2-methyl-6,7,8,9-tetra-hydro-5H-pyrimido[4,5-d]-azepin-4-amine]	16.3	61.7	77	–	–
Clc1cccc(Cc2ncc3c(n2)CCNCC3)c1 [Example 56, 2-(3-Chlorobenzyl)-6,7,8,9-tetrahydro-5H-pyrimido[4,5-d]azepine]	83.9	–	180	55.9	–
CCCCc1nc(Cc2ccccc2)nc2c1CCNCC2 [Example 69, 2-Benzyl-4-butyl-6,7,8,9-tetrahydro-5H-pyrimido[4,5-d]azepine]	153	77.1	274	–	–
CC(C)[C@@H](CO)Nc1nc(Cc2ccccc2)nc2c1CCNCC2 [Example 24, (2S)-2-[(2-benzyl-6,7,8,9-tetrahydro-5H-pyrimido[4,5-d]azepin-4-yl)amino]-3-methylbutan-1-ol hydrochloride]	91.4	69.9	119	–	–
CC(CO)Nc1nc(Cc2ccccc2)nc2c1CCNCC2 (stereo not drawn) [Example 33, 2-[(2-benzyl-6,7,8,9-tetrahydro-5H-pyrimido[4,5-d]azepin-4-yl)amino]propan-1-ol hydrochloride]	125	58.5	424	–	–
CCOc1nc(C(C)c2ccccc2)nc2c1CCNCC2 (stereo not drawn) [Example 59, 4-Ethoxy-2-(1-phenylethyl)-6,7,8,9-tetrahydro-5H-pyrimido[4,5-d]azepine]	49.3	33.1	107	–	–
OCCNc1nc(Cc2ccccc2)nc2c1CCNCC2 [Example 23, 2-[(2-benzyl-6,7,8,9-tetrahydro-5H-pyrimido[4,5-d]azepin-4-yl)amino]ethanol hydrochloride]	107	72.6	159	–	–
CN(C)c1nc(N(C)Cc2ccccc2)nc2c1CCNCC2 [Example 14, N-2-benzyl-N-2,N-4,N-4-trimethyl-6,7,8,9-tetrahydro-5H-pyrimido[4,5,d]azepin-2-amine]	144	50.8	279	–	–
CN(Cc1ccccc1)c1nc2c(c(N3CCOCC3)n1)CCNCC2 [Example 15, N-benzyl-N-methyl-4-morpholin-4-yl-6,7,8,9-tetrahydro-5H-pyrimido[4,5,d]azepin-2-amine]	181	–	202	–	64.10
N#CC1CCCN(c2nc(Cc3ccccc3)nc3c2CCNCC3)C1 (stereo not drawn) [Example 40, 1-(2-benzyl-6,7,8,9-tetrahydro-5H-pyrimido[4,5-d]azepin-4-yl)piperidine-3-carbonitrile hydrochloride]	413	40.6	309	–	–
OCC1CCN(c2nc(Cc3ccccc3)nc3c2CCNCC3)C1 (stereo not drawn) [Example 42, [1-(2-benzyl-6,7,8,9-tetrahydro-5H-pyrimido[4,5-d]azepin-4-yl)pyrrolidin-3-yl]methanol hydrochloride]	102	75.4	67	–	–
CC(c1ccccc1)c1ncc2c(n1)CCNCC2 (stereo not drawn) [Example 2, 2-(1-Phenylethyl)-6,7,8,9-tetrahydro-5H-pyrimido[4,5-d]azepine]	140	84.9	198	–	–
C1CCN(c2nc3c(c(N4CCSCC4)n2)CCNCC3)C1 [Example 106, 2-pyrrolodin-1-yl-4-thiomorpholin-4-yl-6,7,8,9-tetrahydro-5H-pyrimido[4,5-d]azepine]	41.6	78.4	100	–	–
CC1CCCN(c2nc(Cc3ccccc3)nc3c2CCNCC3)C1 (stereo not drawn) [Example 30, 2-benzyl-4-(3-methylpiperidin-1-yl)-6,7,8,9-tetrahydro-5H-pyrimido[4,5-d]azepine hydrochloride]	99.1	54.8	984	–	–
C[C@H]1COCCN1c1nc(Cc2ccccc2)nc2c1CCNCC2 [Example 45, 2-benzyl-4-[(3S)-3-methylmorpholin-4-yl]-6,7,8,9-tetrahydro-5H-pyrimido[4,5-d]azepine hydrochloride]	28.4	88.4	69.5	–	–
c1ccc(Cc2nc3c(c(N4CCCCC4)n2)CCNCC3)cc1 [Example 29, 2-benzyl-4-piperidin-1-yl-6,7,8,9-tetrahydro-5H-pyrimido[4,5-d]azepine hydrochloride]	177	37.7	962	–	–
CN(C)c1nc(N(C)CC2CC2)nc2c1CCNCC2 [Example 104, N-2-(cyclopropylmethyl)-N-2,N-4,N-4-trimethyl-6,7,8,9-tetrahydro-5H-pyrimido[4,5-d]azepine-2,4-diamine]	90.3	69	282	–	–
c1ccc(Cc2nc3c(c(-n4cccn4)n2)CCNCC3)cc1 [Example 1, 2-Benzyl-4-(1H-pyrazol-1-yl)-6,7,8,9-tetrahydro-5H-pyrimido[4,5-d]azepine]	72	83.5	224	–	–
c1ccc(C2(c3nc4c(c(N5CCOCC5)n3)CCNCC4)CC2)cc1 [Example 13, 4-Morpholin-4-yl-2-(1-phenylcyclopropyl)-6,7,8,9-tetrahydro-5H-pyrimido[4,5-d]azepine]	2300	64.4	499	–	–
OC1CCN(c2nc(Cc3ccccc3)nc3c2CCNCC3)C1 (stereo not drawn) [Example 44, 1-(2-benzyl-6,7,8,9-tetrahydro-5H-pyrimido[4,5-d]azepin-4-yl)pyrrolidin-3-ol hydrochloride]	139	75.5	136	–	–
Cc1cccc(Cc2ncc3c(n2)CCNCC3)c1 [Example 65, 2-(3-Methylbenzyl)-6,7,8,9-tetrahydro-5H-pyrimido[4,5-d]azepine]	244	83.9	211	–	–
CC(C)(c1ccccc1)c1ncc2c(n1)CCNCC2 [Example 9, 2-(1-Methyl-1-phenylethyl)-6,7,8,9-tetrahydro-5H-pyrimido[4,5-d]azepine]	401	52.6	732	–	–
CO[C@H]1CCN(c2nc(Cc3ccccc3)nc3c2CCNCC3)C1 [Example 26, 2-benzyl-4-[(3S)-3-methoxypyrrolidin-1-yl]-6,7,8,9-tetrahydro-5H-pyrimido[4,5-d]azepine hydrochloride]	229	60.9	417	–	–
OC1CCCN(c2nc(Cc3ccccc3)nc3c2CCNCC3)C1 (stereo not drawn) [Example 18, 1-(2-benzyl-6,7,8,9-tetrahydro-5H-pyrimido[4,5-d]azepin-4-yl)piperidin-3-ol hydrochloride]	243	51.3	558	–	–
COc1nc(C(F)(F)c2ccccc2)nc2c1CCNCC2 [Example 72A, 2-(Difluoro-phenyl-methyl)-4-methoxy-6,7,8,9-tetrahydro-5H-pyrimido[4,5-d]azepine hydrochloride]	15	–	35.6	31.9	–
